# Experimental data as given in PMC6107127, “Characteristics of the mitochondrial and cellular uptake of MPP^+, as probed by the fluorescent mimic, 4'I-MPP^+” (PLoS ONE, 2018).
# Key:
# [1] = tested on: isolated intact MN9D mitochondria; test: Effects of Ca2+ and inhibitors on MN9D mitochondrial uptake of 4'I-MPP+; set-up: species or system mouse; details: for 4'I-MPP+ uptake inhibition: 200 μM 4'I-MPP+
# Description: Intact MN9D cell mitochondria were incubated with 200 μM 4'I-MPP^+ for 45 min at 37 °C in 0, 500 or 1000 nM Ca^2+ containing KCl buffer. When mNCX inhibitors (KBR7943, 2APB and CGP37157) were used, mitochondrial suspensions were initially incubated with 10, 25 or 50 μM inhibitor in KCl buffer for 10 min at 37 °C and then with 200 μM 4'I- MPP^+ for 45 min at 37 °C. After the incubations, samples were centrifuged at 7,000 x g at 4 °C for 10 min and the mitochondrial pellets were treated with 75 μL of 0.1 M HClO4. […] To visualize the effect of CGP37157 on the mitochondrial uptake of 4'I-MPP^+ in live cells, HepG2 cells grown in glass-bottomed plates were incubated with 50 μM CGP37157 for 30 min initially and then with 100 μM 4'I-MPP^+ and 200 nM MitoTracker Green FM in KRB-HEPES for 1 h at 37 °C. After incubation cells were washed and reconstituted with KRB-HEPES, pH 7.4 and 4'I-MPP^+ and MitoTracker Green FM fluorescence images of cells were recorded as detailed above. Controls were treated under the same experimental conditions, except that CGP37157 was omitted from the initial incubation.
# S4 Fig. Effects of Benzamil, Verapamil, FFA, and ruthenium red on the MN9D mitochondrial uptake of 4'I-MPP+. MN9D mitochondrial suspensions were initially incubated with a 50 μM concentration of the desired agent (10 μM Ruthenium red) in KCl buffer for 10 min at 37 °C and then incubated with 200 μM 4'I-MPP+ for 45 min at 37 °C. After the incubations, the […] 4'I-MPP+ contents were quantified by RP-HPLC-UV as described in Material and methods. The data are represented as mean ± S.D (n=3).
# (also on this page, place not known: contol 10uM Ru red BenzamilVerapamil FFA 4I' MPP+ uptake (nmoles/mg) 0.0 0.1 0.2 0.3 0.4 0.5)
# (1 picture or pasted object on this page, not shown here)
# [2] = tested on: HepG2 cells; test: Effect of CGP37157 and KBR7943 on 4'I-MPP+-mediated mitochondrial membrane depolarization (TMRM); assay type: cell-based, human
# Description: HepG2 cells grown in glass-bottomed plates for two days were treated with 50 μM CGP37157 or KBR7943 in KRB-HEPES for 30 min followed by 50 nM TMRM in KRB-HEPES for 45 min. Then plates were mounted on the stage of the microscope and mitochondrial membrane depolarization upon the treatment with 100 μM 4'I-MPP^+ was measured as a function of time as detailed above. The effect of CGP37157 on the 4'I-MPP^+ mediated mitochondrial membrane depolarization at longer time periods was monitored by observing the reduction of TMRM fluorescence from 0 to 4 h incubations in the presence or absence of CGP37157. HepG2 cells were incubated with or without 10 μM CGP37157 followed by 50 nM TMRM, and finally with 4'I-MPP^+ (100 μM, 0 or 4 h) and the intracellular TMRM fluorescence was recorded. Controls were carried out using an identical protocol except that either CGP37157 or 4'I-MPP^+ were omitted from the incubation media.
# [3] = tested on: MN9D cells; test: Protection of MN9D cells from MPP+ and 4'I-MPP+ toxicities (MTT); assay type: cell-based, mouse; details: 0–50 μM CGP37157 30 min, then 80 μM MPP+ or 25 μM 4'I-MPP+ for 8 h
# Description: Cell viability was determined by the MTT [3-(4,5-dimethylthiazol-2-yl)-2,5-diphenyltetrazolium bromide)] assay. Briefly, cells were seeded on 96-well plates and allowed to grow to about 70–80% confluence. Prior to the experiment, culture media was replaced with KRB-HCO3^- containing desired concentrations of MPP^+ or 4'I-MPP^+ and incubated for 16 h at 37 °C. After the incubation, 10 μL of 5 mg/mL MTT solution was added to each well and incubated for 2 h at 37 °C. The resulting formazan was solubilized by the addition of 210 μL detergent solution [50% DMF/H2O (v/v), 20% SDS (w/v)] followed by incubation at 37 °C for 12 h. The cell viabilities were determined by quantifying solubilized formazan by measuring the difference in the absorbance at 570 nm and 650 nm. Results were expressed as % viability of MPP^+ or 4'I-MPP^+ treated cells with respect to control cells, which were treated under the same conditions except in the absence of the MPP^+ or 4'I-MPP^+.
# Fig 7 CGP37157 protect MN9D cells from MPP^+ and 4'I-MPP^+ toxicities. Cells were pre-incubated with 0–50 μM CGP37157 for 30 min followed by 80 μM MPP^+ or 25 μM 4'I-MPP^+ for 8 h. The relative cell viabilities were determiner using MTT assay, as detailed above. Data are presented as mean ± SD (n = 6). ٭p<0.0001 and #p<0.005 versus no CGP37157 controls.
compound,measurement,setting,value
O=C1CSC(c2ccccc2Cl)c2cc(Cl)ccc2N1 (stereo not drawn) [CGP37157],4'I-MPP+ uptake inhibition,[1]; 10 μM inhibitor,about 40%
same,4'I-MPP+ uptake inhibition,[1]; 25 μM inhibitor,~ 45%
same,effect on uptake of 4'I-MPP+,[1]; 50 μM inhibitor at 200 μM 4'I-MPP+,inhibit the uptake
same,"effect on 4'I-MPP+-induced mitochondrial membrane depolarization, longer incubation","[2]; 10 μM CGP37157, 100 μM 4'I-MPP+, lasting at least 4 h",slows down
same,effect on 4'I-MPP+ mitochondrial membrane depolarization,"[2]; 50 μM pre-treatment 30 min, 100 μM 4'I-MPP+",significantly reduced
same,protection from MPP+ and 4'I-MPP+ toxicities,[3],effectively protects
